In PubChem BioAssay (NCI):
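Tested at 5 concentrations; 48 h exposure; 96-well plates; endpoints linearly interpolated, else capped at highest concentration. The concentration for 50% growth inhibition is given as GI50. Definition used: TGI = concentration required for complete inhibition of growth.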

How the values were obtained:
Test in all cases: NCI-60 cell line screen, 48 h
[1] = system: OVCAR-3 ovarian
[2] = system: SK-MEL-5 melanoma
[3] = system: SNB-75 CNS
[4] = system: PC-3 prostate
[5] = system: SF-295 CNS
[6] = system: ACHN renal
[7] = system: LOX IMVI melanoma
[8] = system: MDA-MB-468 breast
[9] = system: HT29 colon
[10] = system: HOP-92 NSCLC
[11] = system: CCRF-CEM leukemia
[12] = system: MDA-MB-435
[13] = system: MOLT-4 leukemia
[14] = system: HCT-116 colon
[15] = system: K-562 leukemia
[16] = system: SNB-19 CNS
[17] = system: 786-0 renal
[18] = system: UACC-62 melanoma
[19] = system: OVCAR-4 ovarian
[20] = system: M14 melanoma
[21] = system: OVCAR-5 ovarian
[22] = system: RXF 393 renal
[23] = system: UO-31 renal
[24] = system: HL-60(TB) leukemia
[25] = system: BT-549 breast
[26] = system: NCI-H23 lung
[27] = system: HCC-2998 colon
[28] = system: DU-145 prostate
[29] = system: SR leukemia
[30] = system: CAKI-1 renal
[31] = system: UACC-257 melanoma
[32] = system: HOP-62 NSCLC
[33] = system: SK-OV-3 ovarian
[34] = system: SF-268 CNS
[35] = system: HS 578T breast
[36] = system: T-47D breast
[37] = system: NCI-H460 lung
[38] = system: RPMI-8226 leukemia
[39] = system: KM12 colon
[40] = system: MALME-3M melanoma
[41] = system: A498 renal
[42] = system: MCF7 breast
[43] = system: NCI-H522 lung
[44] = system: SK-MEL-2 melanoma
[45] = system: SF-539 CNS
[46] = system: A549 NSCLC
[47] = system: NCI-H226 lung
[48] = system: COLO 205 colon
[49] = system: HCT-15 colon
[50] = system: OVCAR-8 ovarian
[51] = system: SW-620 colon
[52] = system: SN12C renal
[53] = system: EKVX NSCLC
[54] = system: SK-MEL-28 melanoma
[55] = system: IGROV1 ovarian
[56] = system: TK-10 renal
[57] = system: MDA-MB-231 breast

CONC[C@]1(C)C=C2C(=O)[C@](C)(O)C3(CC3)C(C)=C2[C@H]1O
GI50 [1]: 2660 nM | TGI [1]: 7960 nM | GI50 [2]: 1050 nM | TGI [2]: 4950 nM | GI50 [3]: 1760 nM | TGI [3]: 3800 nM | GI50 [4]: 754 nM | TGI [4]: 6120 nM | GI50 [5]: 345 nM | TGI [5]: 42400 nM | GI50 [6]: 233 nM | TGI [6]: 565 nM | GI50 [7]: 868 nM | TGI [7]: 6630 nM | GI50 [8]: 518 nM | TGI [8]: 1970 nM | GI50 [9]: 420 nM | TGI [9]: 6660 nM | GI50 [10]: 705 nM | TGI [10]: 4320 nM | GI50 [11]: 570 nM | TGI [11]: 6660 nM | GI50 [12]: 1840 nM | TGI [12]: 3900 nM | GI50 [13]: 688 nM | TGI [13]: > 100000 nM | GI50 [14]: 298 nM | TGI [14]: 46400 nM | GI50 [15]: 661 nM | TGI [15]: > 100000 nM | GI50 [16]: 2120 nM | TGI [16]: 7580 nM | GI50 [17]: 1650 nM | TGI [17]: 6900 nM | GI50 [18]: 1550 nM | TGI [18]: 3010 nM | GI50 [19]: 2900 nM | TGI [19]: 9090 nM | GI50 [20]: 1410 nM | TGI [20]: 4870 nM | GI50 [21]: 346 nM | TGI [21]: 5650 nM | GI50 [22]: 410 nM | TGI [22]: 1650 nM | GI50 [23]: 1270 nM | TGI [23]: 4390 nM | GI50 [24]: 485 nM | TGI [24]: 6440 nM | GI50 [25]: 1020 nM | TGI [25]: 4670 nM | GI50 [26]: 422 nM | TGI [26]: 1890 nM | GI50 [27]: 1380 nM | TGI [27]: 3400 nM | GI50 [28]: 436 nM | TGI [28]: 16500 nM | GI50 [29]: 650 nM | TGI [29]: > 100000 nM | GI50 [30]: 1050 nM | TGI [30]: 18800 nM | GI50 [31]: 1720 nM | TGI [31]: 4620 nM | GI50 [32]: 1630 nM | TGI [32]: 4550 nM | GI50 [33]: 1310 nM | TGI [33]: 4830 nM | GI50 [34]: 1070 nM | TGI [34]: 12800 nM | GI50 [35]: 2550 nM | TGI [35]: 7260 nM | GI50 [36]: 2050 nM | TGI [36]: 7890 nM | GI50 [37]: 353 nM | TGI [37]: 11000 nM | GI50 [38]: 9670 nM | TGI [38]: > 100000 nM | GI50 [39]: 2320 nM | TGI [39]: 15400 nM | GI50 [40]: 1050 nM | TGI [40]: 2490 nM | GI50 [41]: 2230 nM | TGI [41]: 5390 nM | GI50 [42]: 298 nM | TGI [42]: 5340 nM | GI50 [43]: 314 nM | TGI [43]: 1470 nM | GI50 [44]: 858 nM | TGI [44]: 2250 nM | GI50 [45]: 1280 nM | TGI [45]: 2790 nM | GI50 [46]: 324 nM | TGI [46]: 11300 nM | GI50 [47]: 2950 nM | TGI [47]: 9130 nM | GI50 [48]: 1480 nM | TGI [48]: 3210 nM | GI50 [49]: 384 nM | TGI [49]: > 100000 nM | GI50 [50]: 1440 nM | TGI [50]: 4350 nM | GI50 [51]: 1780 nM | TGI [51]: > 100000 nM | GI50 [52]: 2330 nM | TGI [52]: 9360 nM | GI50 [53]: 1770 nM | TGI [53]: 4850 nM | GI50 [54]: 1810 nM | TGI [54]: 3780 nM | GI50 [55]: 1600 nM | TGI [55]: 8010 nM | GI50 [56]: 3320 nM | TGI [56]: 19200 nM | GI50 [57]: 1750 nM | TGI [57]: 5880 nM
